Reference: patent US11192863B2, “Antiviral compounds and methods” (Biotron Limited, priority 2003, dated 2021)
Counter-ions that a name gives are not always drawn. Like-named read-outs stand apart in the source and are kept apart here.

What was measured:
Vpu protein = Vpu protein (Human immunodeficiency virus type 1 group M subtype B, UniProt P05919); conditions: for Vpu Inhibition (score/# of times tested): halo of growth score between zero and six, XL1-blue E. coli with pPL-Vpu, no adenine, 37° C.
229E-CoV E-protein = 229E-CoV E-protein (Human coronavirus 229E, UniProt P19741); test: Bacterial bio-assay for 229E-CoV E-protein; conditions: halo of growth score; E. coli expressing E protein at 37° C.
[1] = target: SARS E protein ion channel (Severe acute respiratory syndrome coronavirus, UniProt P59637); type: biochemical, SARS-CoV
MHV (strain MHV-A59) = conditions: L929 cells
SARS-CoV E protein = SARS-CoV E protein (Severe acute respiratory syndrome coronavirus, UniProt P59637); type: cell-based
[2] = tested on: porcine respiratory coronavirus (PRCV) strain AR310; test: PRCV plaque assay in ST cells; type: cell-based; conditions: Alphacoronavirus 1; PRCV plaques in ST cells
bovine coronavirus (BCV) = test: BCV plaque assay in MDBK cells; type: cell-based; conditions: Betacoronavirus 1; BCV plaques in MDBK cells
HIV = type: cell-based; conditions: for At least 1x log reduction seen in p24 assay?: Table 19b, yes/no
human coronavirus OC43 = test: microbe, parasite or virus in culture; type: cell-based; conditions: Betacoronavirus 1, OC43, MRC5, 120 h, MRC-5 cells, 5 days post infection
Dengue 1 strain Hawaii = test: Dengue cytoproliferation assay in LLC-MK2 cells (Alamar Blue); type: cell-based, Dengue virus; conditions: 7 days
[3] = Table 19a, rank among 12 compounds, 1 = highest score

Compound | Vpu Inhibition (score/# of times tested) (Vpu protein) | 229E E protein Inhibition (score) (229E-CoV E-protein) | Percent reduction in Plaque number/# experiments (MHV (strain MHV-A59); 1 uM) | Percent reduction in Plaque number/# experiments (MHV (strain MHV-A59); 10 uM) | Percent reduction in Plaque number/# experiments (MHV (strain MHV-A59); 20 uM) | SARS E protein Inhibition (score/# of times tested) (SARS-CoV E protein) | Bacterial assay rank order (Vpu protein; [3]) | Bacterial assay rank order (Vpu protein; Table 19b) | Vpu Bacterial score (Vpu protein; Table 19b) | EC50 [2] [µM] | EC50 (bovine coronavirus (BCV)) [µM] | At least 1x log reduction seen in p24 assay? (HIV) | inhibition at 2.5 µM (human coronavirus OC43) [%] | also measured
N=C(N)NC(=O)/C=C/c1ccccc1Br [(2-Bromocinnamoyl)guanidine] | 3.7/2 score | 0.9 | 52/3% | 89/3% | 91/2% | 2.47/3 score |  |  |  |  |  |  |  | % Reduction of average current by 100 μM [1]: 88 ± 6%
N=C(N)NC(=O)Cc1ccc2ccccc2c1 [2-(2-napthyl)acetoylguanidine] | 1.19/2 score | 0.1 | 23/1% | 20/2% | 52/1% | 0.71/1 score | 11 | 11 | 1.2 | 120 | 99 | no |  | 
N=C(N)NC(=O)c1ccc(-c2ccccc2)cc1 [4-phenylbenzoylguanidine] | 2.75/5 score | 2.3 | 5/1% | 24/1% | 32/1% | 0.63/2 score | 7 | 7 | 2.8 |  | 190 | no |  | Percent of Positive Control (HIV; Drug Conc. 0.625 μM): 10%; Percent of Positive Control (HIV; Drug Conc. 1.25 μM): 216%; Percent of Positive Control (HIV; Drug Conc. 2.5 μM): 9%; Percent of Positive Control (HIV; Drug Conc. 5 μM): 4%; Percent of Positive Control (HIV; Drug Conc. 10 μM): 26%
N=C(N)NC(=O)/C=C/c1cccc(C(F)(F)F)c1 [3-(trifluoromethyl)cinnamoylguanidine] | 3.7/2 score | 2.3 | 40/1% | 83/1% | 98/1% | 2.67/1 score | 2 | 2 | 3.7 |  | 3 | yes | 84 | Percent of Positive Control (HIV; Drug Conc. 0.625 μM): 38%; Percent of Positive Control (HIV; Drug Conc. 1.25 μM): 27%; Percent of Positive Control (HIV; Drug Conc. 2.5 μM): 25%; Percent of Positive Control (HIV; Drug Conc. 5 μM): 8%; Percent of Positive Control (HIV; Drug Conc. 10 μM): 11%
O=C(CCc1ccccc1)NC(=Nc1ccccc1)NC(=O)CCc1ccccc1 [N,N′-bis(3phenylpropanoyl)-N″-phenylguanidine] | 2.25/3 score | 0.1 | 1/3% | 40/4% | 67/3% | 1.33/3 score |  |  |  |  |  |  |  | % Reduction of average current by 100 μM [1]: 88 ± 6%
N/C(=N\C(=O)c1nc(Cl)c(N)nc1N)NCc1ccc(Cl)cc1Cl [2′4 DichloroBenzamil HCl] | 1.7/2 score |  | 0/3% | 0/3% | 12/2% | 3.00/2 score |  |  |  |  |  |  |  | % Reduction of average current by 100 μM [1]: 78 ± 0%
N=C(N)NC(=O)/C=C/c1ccccc1Cl [(2-Chlorocinnamoyl)guanidine] | 4.0/4 score | 0.1 | 53/3% | 88/3% | 95/2% | 3.1/3 score |  |  |  |  |  |  | 96 | Antiviral Percent of Negative Control (Dengue 1 strain Hawaii; Drug Conc. 0.625 μM): 64.3%; Antiviral Percent of Negative Control (Dengue 1 strain Hawaii; Drug Conc. 1.25 μM): 52.5%; Antiviral Percent of Negative Control (Dengue 1 strain Hawaii; Drug Conc. 2.5 μM): 22.7%; Antiviral Percent of Negative Control (Dengue 1 strain Hawaii; Drug Conc. 5 μM): 7.7%; Antiviral Percent of Negative Control (Dengue 1 strain Hawaii; Drug Conc. 10 μM): 8.4%
N=C(NC(=O)CCc1ccccc1)Nc1ccccc1 [N-(3-phenylpropanoyl)-N′-phenylguanidine] | 2.21/3 score | 0.1 | 43/1% | 65/1% | 80/1% | 1.57/2 score | 9 | 9 | 2.2 | 19 | 156 | no |  | 
Cc1cccc(/C=C/C(=O)NC(=N)N)c1 [3-methylcinnamoylguanidine] | 3.4/2 score | 0.5 | 39/1% | 88/1% | 90/1% | 1.00/1 score | 3 | 3 | 3.4 | 1.43 |  | yes | 100 | 
N=C(N)NC(=O)C1CC1c1ccccc1 (stereo not drawn) [(trans-2-Phenylcyclopropanecarbonyl)guanidine] | 0.4/2 score | 0.8 | 31/2% | 64/2% | 77/2% | 1.34/3 score | 12 | 12 | 0.4 | 17.2 | 109 | no | 71 | 
NC(N)=NC(=O)/C=C/C=C/c1ccccc1 [(5-Phenyl-penta-2,4-dienoyl)guanidine] | 2.56/2 score | 1.8 | 17/1% | 24/1% | 27/1% | 0.44/2 score | 8 | 8 | 2.6 |  | 95 | no | 9 | 
